From ChEMBL document CHEMBL5726170, “Histone demethylase inhibitors” (2019)

Assay: JMJD2C Assay: The ability of test compounds to inhibit the activity of JMJD2C was determined in 384-well plate format under the following reaction conditions: 0.3 nM JMJD2C, 300 nM H3K9me3-biotin labeled peptide (Anaspec cat #64360), 2 μM alpha-ketoglutaric acid in assay buffer of 50 mM HEPES, pH7.3, 0.005% Brij35, 0.5 mM TCEP, 0.2 mg/ml BSA, 50 μM sodium L-ascorbate, and 2 μM ammonium iron(II) sulfate. Reaction product was determined quantitatively by TR-FRET after the addition of detection reagent Phycolink Streptavidin-allophycocyanin (Prozyme) and Europium-anti-di-methylated histone H3 lysine 9 (H3K9me2) antibody (PerkinElmer) in the presence of 5 mM EDTA in LANCE detection buffer (PerkinElmer) at a final concentration of 50 nM and 1 nM, respectively.The assay reaction was initiated by the following: 2 μl of the mixture of 900 nM H3K9me3-biotin labeled peptide and 6 μM alpha-ketoglutaric acid with 2 μl of 11-point serial diluted inhibitor in 3% DMSO were added to each well of the plate, followed by the addition of 2 μl of 0.9 nM JMJD2C to initiate the reaction. The reaction mixture was incubated at room temperature for 30 min, and terminated by the addition of 6 μl of 5 mM EDTA in LANCE detection buffer containing 100 nM Phycolink Streptavidin-allophycocyanin and 2 nM Europium-anti-H3K9me2 antibody. Plates were read by EnVisionMultilabel Reader in TR-FRET mode (excitation at 320 nm, emission at 615 nm and 665 nm) after 1 hr incubation at rt. A ratio was calculated (665/615) for each well and fitted to determine inhibition constant (IC50).

Row | SMILES | IC50
1 | O=C(O)c1ccncc1NCC1CCOc2cc(F)ccc21 (centres undefined) | in the range around 0.55 µM
2 | O=C(O)c1ccncc1NCC1CCCc2c(OCC3CC3)cccc21 (centres undefined) | in the range around 5.5 µM
3 | O=C(O)c1ccncc1NCC1CCCc2cc(OC(F)(F)F)ccc21 (centres undefined) | in the range around 5.5 µM
4 | O=C(O)c1ccncc1NCC1CCCc2c(Oc3ccccc3)cccc21 (centres undefined) | in the range around 5.5 µM
